Measurements as given in US20060194814A1, “Benzamide compounds” (priority 2003, published 2006).
Where a name gives a salt, the structure may show the parent alone.

Key:
HeLa cells = test: MTT cytotoxicity assay after the HIV replication protocol; assay type: cell-based, human; details: all concentrations tested, up to 100 μM
[1] = system: H295R human adrenal tumor cells; test: dbcAMP-induced cortisol synthesis in H295R cells; assay type: cell-based
Experimental: (§1) Culture media were then changed and cells were stimulated with 1 mM dbcAMP and the treatment for 24 to 48 hours. […] The synthesis of 20 —OH progesterone and progesterone in Y1 and MA-10 cell media respectively were measured by RIA (Brown et al., 1992). H295R human adrenal tumor cells were seeded in 48-well plates at 10^5 cells/well and incubated for 24 hours. […] At the end of the incubation time period, cells were treated with 1 mM dbcAMP for 48 hours. Cortisol levels in the media were determined by radioimmunoassay as previously described (Amri et al., 1996).

[2] = system: H295R human adrenal tumor cells; test: MTT mitochondrial function/cell viability in H295R cells; assay type: cell-based
Experimental: (§2) Cell viability at the end of the incubation protocol described above was assessed using the mitochondrial integrity 3-(4,5-dimethylthiazol-2-yl)-2,5-diphenyl tetrazolium bromide (MTT) assay (Trevigen, Gaithersburg, Md.). Briefly, 10 l of the MTT solution were added to the cells in 100 l medium. After an incubation period of 4 hours, 100 l of detergent were added and cells were incubated overnight at 37° C. Formazan blue formation was quantified at 600 nm and 690 nm using the Victor quantitative detection spectrophotometer (EGG-Wallac, Gaithersburg, Md.) and the results expressed as (OD600-OD690).

[3] = system: MA-10 mouse Leydig tumor cells; assay type: cell-based
Experimental: as §2

PKA = test: dbcAMP-stimulated PKA activity (PepTag assay) in Y1 cells; assay type: cell-based, mouse; parameters: dose or concentration left out as unconfirmed
Experimental: Y1 cells were cultured in 6-well plates (2×10^5 cells per well) and treated as described above for steroid biosynthesis. At the end of the incubation, cells were washed twice with PBS and proteins were extracted using an extraction buffer (25 mM tris-HCl, pH 7.4, 0.5 mM EDTA, 0.5 mM EGTA, 10 mM -mercaptoethanol, 0.5 mM PMSF, 1 g/ml leupeptin, and 1 g/ml aprotinin). After centrifugation at 18,500 g for 15 minutes, the supernatants were kept for PKA activity assay. Samples were processed using the PepTag assay for non-radioactive detection of PKA activity following the manufacturer's recommendations (Promega Corporation, Madison, Wis.).

[4] = biological target: T1, peripheral-type benzodiazepine receptor (PBR) (Mus musculus, UniProt P50637); test: PBR radioligand binding ([3H]PK 11195) in procaine-treated cells; details: 1 μM procaine, 48 hour treatment; radioligand [3H]PK 11195
T1 construct: endogenous in cells; Y1 inferred from context
Experimental: Radioligand binding assays were performed as previously described (Papadopoulos et al., 1990, J. Biol. Chem. 265, 3772-3779). In brief, cells were scrapped from culture flasks into PBS, dispersed by trituration, and centrifuged at 1200×g for 5 min. The cells were resuspended in PBS to a final concentration of 10-50 μg protein/100 μl. Saturation binding studies were performed in a final volume of 300 μl in the presence of the radioligand [^3H]PK 11195 (specific activity 83.5 Ci/mmol; NEN Life Science Products) at the indicated concentrations. Nonspecific binding was determined in the presence of 6 μM of the homologous non-radioactive ligand. After 180 min incubation at 4° C., the assays were stopped by filtration through Whatman GF/C filters (Clifton, N.J.) and washed with 10 ml PBS. Bound radioactivity was determined by liquid scintillation counting. Bound [^3H]PK 11195 and [^3H]cholesterol were quantified by liquid scintillation spectrometry. Dissociation constants (Kd), the number of binding sites (Bmax) and Hill coefficients (nH) for PK 11195 and cholesterol were determined by Curve-Fit (Prism version 3.0, GraphPad Software Inc., San Diego, Calif.).

[5] = system: steroidogenesis acute regulatory protein (StAR); test: Immunoblot of StAR protein in Y1 cells; assay type: cell-based, mouse; details: 1 μM procaine, 48 hour treatment
Experimental: At the end of the treatment protocol described above, Y1 cells at 90% confluency were washed 2 times with PBS, sonicated 15 seconds in extraction buffer and centrifuged at 18,500 g for 15 minutes at 4° C. Pellets were resuspended in ice-cold lysis buffer (1% Nonidet 40 in extraction buffer), sonicated briefly, and incubated on ice for 1 hour. After centrifugation (22,500 g×30 min, 4° C.), the supernatant was mixed in sample buffer 6× (0.27 M SDS, 0.6 M dithiothreitol, 0.18 M bromphenol blue in 7 ml of 0.5 M Tris-HCl, pH 6.8, and 3 ml glycerol) and boiled for 5 minutes. Proteins were subjected to SDS-PAGE (4-20% gradient SDS polyacrylamide gel) and electrophoretically transferred onto nitrocellulose membranes. The transblot sheets were blocked with 5% non fat dry milk in 25 mM Tris HCl, pH 7.5, 150 mM NaCl, and 0.1% Tween 20 overnight at 4° C. Membranes were then incubated with appropriately diluted primary antibodies 1:800 for anti-P-450scc (Research Diagnostics Inc. Flanders, N.J.) and 1:200 for anti-StAR (Amri et al., 1996), and the reaction was detected by a peroxidase-conjugated secondary antibody (Santa Cruz Biotechnology, Santa Cruz, Calif.) and enhanced chemiluminescence (Amersham Life, Arlington Heights, Ill.). The densities of the appropriate bands were determined using the OptiQuant Acquisition & Analysis software (Packard BioScience).

Y1 cells = test: dbcAMP and mevalonate-supported 20á-hydroxyprogesterone formation in Y1 cells; assay type: cell-based, mouse; parameters: dose or concentration left out as unconfirmed; details: procaine
Experimental: as §1

HMG-CoA reductase mRNA [6] = test: HMG-CoA reductase mRNA expression by Q-PCR in UT-1 cells; assay type: cell-based, Chinese hamster
Experimental: (§3) After treatment, cells were stimulated with 1 mM dbcAMP for 24 hours. At the end of the incubation, total cell RNA was extracted using RNA STAT-60 (Tel-Test Inc, Friendswood, Tex.) according to the manufacturer's instructions. HMG-CoA reductase mRNA was quantified by Q-PCR using the ABI Prism 7700 sequence detection system (Perkin-Elmer/Applied Biosystems, Foster City, Calif.). RT reaction was performed using TaqMan® Reverse Transcription Reagents with 1 g total RNA and random hexamers as primers for each reaction according to the manufacturer's instructions. For quantifying mouse HMG-CoA reductase mRNA with Q-PCR, the primers were designed according to GenBank Accession Number BC 019782 using PE/AB Primer Express software, which is specifically designed for the selection of primers and probes. The forward primer was 5′-[…]-3′ (22 nucleotides; SEQ ID NO:1) and reverse primer was 5′-[…]-3′ (23 nucleotides; SEQ ID NO:2), respectively. The primers were synthesized by Bio-Synthesis Inc. (Lewisville, Tex.). Reactions were performed in a reaction mixture consisting of a 20 l volume solution containing 10 l SYBR® Green PCR Master Mix and 1 l primers mix (5 M each) with 2 l cDNA.

HMG-CoA reductase mRNA [7] = test: HMG-CoA reductase mRNA expression by Q-PCR in Hepa1-6 cells; assay type: cell-based; details: Hepa1-6 mouse liver hepatoma cells
Experimental: as §3

In the case of `CCN(CC)CCOC(=O)c1ccc(N)cc1` [SP01, procaine HCl], the “cell toxicity (MTT)” value (HeLa cells) is reported as “devoid of cell toxicity”, the “effect on dbcAMP-stimulated cortisol production” value [1] is reported as “inhibited the dbcAMP-stimulated cortisol production in a dose-dependent manner” and the “effect on basal cortisol production” value ([1]; basal) is reported as “without effecting basal cortisol production”. The “effect on dbcAMP-induced change of mitochondrial function (MTT)” value [2] was “protected against the dbc-AMP-induced change of mitochondrial function”, the “effect on cell viability (MTT)” value [3] was “did not affect MA-10 cell viability” and the “effect on dbcAMP-stimulated PKA activity” value (PKA) was “no significant effect”. The “Bmax of PBR ligand binding in procaine-treated cells” value [4] was 29±4 pmol/mg protein, the “effect on levels of the mature 30 kDa StAR protein” value [5] was “did not affect” and the “effect on dbcAMP and mevalonate-supported 20á-hydroxyprogesterone formation” value (Y1 cells) was “did not inhibit”. The “effect on HMG-CoA reductase mRNA expression” value (HMG-CoA reductase mRNA [6]) was “not significant” and the “effect on dbcAMP-induced HMG-CoA reductase mRNA levels” value (HMG-CoA reductase mRNA [7]) was “inhibited”.
